{
  "source": "patent US20090005248A1",
  "about": "“SYNERGISTIC HERBICIDAL COMPOSITION CONTAINING A SUBSTITUTED PHENOXY ALKANOIC ACID DERIVATIVE AND A GLYPHOSATE DERIVATIVE” (Dow AgroSciences LLC, priority 2007, published 2009)",
  "assay_type_in_all_cases": "in vivo",
  "key": {"[1]": {"test_system": "spiderwort (Commelina benghalensis; COMBE)", "test": "Greenhouse foliar application, visual herbicidal activity on COMBE", "conditions": "14 to 21 days after application", "text": "(§1) 2,4-D (dimethylamine salt), dichlorprop (potassium salt) and Glyphomax XRT® herbicide (isopropylamine salt) alone and in combinations were applied to the foliage of rapidly growing plant material utilizing a track sprayer calibrated to deliver an application volume of 187 L/ha. Treated plant material was maintained in a greenhouse that provided a 16-hr photoperiod, supplemented with metal halide-generated light, set to provide a minimum of 500 μmolm^−2s^−1. The greenhouse was maintained at a temperature of 26 to 28° C. and a relative humidity of 50 to 70%. Assessment of herbicidal activity was performed visually 14 to 21 days after application.\n(§2) The expected growth reduction of plant species from the combination of herbicides was calculated utilizing the Colby equation:\n(§3) Expected growth reduction (E)=X+Y−(X*Y/100)\n(§4) where X is % of growth reduction of a weed at a given concentration of a herbicide (or herbicide formulation) and Y is the % growth reduction of the same species and size weed at a given concentration of an independent herbicide (or herbicide formulation)."}, "[2]": {"test_system": "field bindweed (Polygonum convolvulus; POLCO)", "test": "Greenhouse foliar application, visual herbicidal activity on POLCO", "conditions": "14 to 21 days after application", "text": "as §1, §2, §3, §4"}, "[3]": {"test_system": "glyphosate-resistant horseweed (ERICA, Conyza canadensis)", "test": "Field study at Church Hill, Md., percent visual control of glyphosate-resistant horseweed", "conditions": "29 days after application", "experimental": "as §2, §3, §4\nA field study was conducted at Church Hill, Md. where glyphosate-resistant horseweed (ERICA, Conyza canadensis) had been observed for 2-3 years prior to the start of this study. The study design was a split-plot with 4 replications per treatment and each plot was 3.048 M wide and 9.144 M long. The environmental conditions at the time of application were as follows: air temperature, 22° C.; wind speed, 6 kph; wind direction, south; releative humidity, 85%; cloud cover, 80%; target foliage moisture, none; soil moisture, moist; soil temperature at 5 cm depth, 21° C. The treatments were applied using a backpack CO2 sprayer, with six XR8003 flat fan nozzles spaced 46 cm apart (boom length: 2.76 M) and held 40 cm above the plant canopy. The sprayer was operated at 103 kPa and 4.8 kilometers per hour to deliver 187 L of water per hectare. At the time of applications the glyphosate-resistant horseweed were 30-38 cm tall and there were between 10 and 20 plants per square meter (m^2). The percent visual control of glyphosate-resistant horseweed was rated over the entire plot (27.87 m^2) 29 days after application. In each plot between 278 and 557 glyphosate-resistant horseweed plants were rated, collectively, for percent visual control."}, "[4]": {"test_system": "Canada thistle (Cirsium arvense; CIRAR)", "test": "Greenhouse foliar application, visual herbicidal activity on CIRAR", "conditions": "14 to 21 days after application", "text": "as §1, §2, §3, §4"}, "[5]": {"test_system": "ivyleaf morning glory (Ipomoea hederacea; IPOHE)", "test": "Greenhouse foliar application, visual herbicidal activity on IPOHE", "conditions": "14 to 21 days after application", "text": "as §1, §2, §3, §4"}, "[6]": {"test_system": "prickly sida (Sida spinosa; SIDSP)", "test": "Greenhouse foliar application, visual herbicidal activity on SIDSP", "conditions": "2,4-D 140 g ae/ha alone, 14 to 21 days after application", "text": "as §1, §2, §3, §4"}, "[7]": {"test_system": "hemp sesbania (Sesbania exaltata; SEBEX)", "test": "Greenhouse foliar application, visual herbicidal activity on SEBEX", "conditions": "14 to 21 days after application", "text": "as §1, §2, §3, §4"}, "[8]": {"test_system": "glyphosate-susceptible Conyza canadensis (ERICA)", "test": "Greenhouse foliar application, visual herbicidal activity on glyphosate-susceptible ERICA", "conditions": "14 to 21 days after application", "text": "as §1, §2, §3, §4"}, "[9]": {"test_system": "common ragweed (Ambrosia artemesifolia; AMBEL)", "test": "Greenhouse foliar application, visual herbicidal activity on AMBEL", "conditions": "14 to 21 days after application", "text": "as §1, §2, §3, §4"}, "[10]": {"test_system": "velvetleaf (Abutilon theophrasti; ABUTH)", "test": "Greenhouse foliar application, visual herbicidal activity on ABUTH", "conditions": "14 to 21 days after application", "text": "as §1, §2, §3, §4"}, "[11]": {"test_system": "glyphosate-resistant Conyza canadensis (ERICA)", "test": "Greenhouse foliar application, visual herbicidal activity on glyphosate-resistant ERICA", "conditions": "14 to 21 days after application", "text": "as §1, §2, §3, §4"}, "[12]": {"test_system": "common waterhemp (Amaranthus rudis; AMATA)", "test": "Greenhouse foliar application, visual herbicidal activity on AMATA", "conditions": "14 to 21 days after application", "text": "as §1, §2, §3, §4"}},
  "data": [
    {"smiles": "O=C(O)COc1ccc(Cl)cc1Cl", "note": "[2,4-D, 2,4-dichlorophenoxy acetic acid]", "values": [
      {"measurement": "Actual Injury (% growth reduction)", "setting": "[1]; 2,4-D 140 g ae/ha alone", "value": 48, "unit": "% growth reduction"},
      {"measurement": "Actual Injury (% growth reduction)", "setting": "[2]; 2,4-D 280 g ae/ha alone", "value": 32, "unit": "% growth reduction"},
      {"measurement": "Actual Injury (% growth reduction)", "setting": "[3]; 2,4-D 280 g ae/ha alone", "value": 12.5, "unit": "% growth reduction"},
      {"measurement": "Actual Injury (% growth reduction)", "setting": "[3]; 2,4-D 560 g ae/ha alone", "value": 23.0, "unit": "% growth reduction"},
      {"measurement": "Actual Injury (% growth reduction)", "setting": "[3]; 2,4-D 1120 g ae/ha alone", "value": 36.3, "unit": "% growth reduction"},
      {"measurement": "Actual Injury (% growth reduction)", "setting": "[4]; 2,4-D 280 g ae/ha alone", "value": 38, "unit": "% growth reduction"},
      {"measurement": "Actual Injury (% growth reduction)", "setting": "[5]; 2,4-D 70 g ae/ha alone", "value": 17, "unit": "% growth reduction"},
      {"measurement": "Actual Injury (% growth reduction)", "setting": "[6]", "value": 17, "unit": "% growth reduction"},
      {"measurement": "Actual Injury (% growth reduction)", "setting": "[7]; 2,4-D 280 g ae/ha alone", "value": 37, "unit": "% growth reduction"},
      {"measurement": "Actual Injury (% growth reduction)", "setting": "[8]; 2,4-D 35 g ae/ha alone", "value": 47, "unit": "% growth reduction"},
      {"measurement": "Actual Injury (% growth reduction)", "setting": "[9]; 2,4-D 140 g ae/ha alone", "value": 61, "unit": "% growth reduction"},
      {"measurement": "Actual Injury (% growth reduction)", "setting": "[10]; 2,4-D 280 g ae/ha alone", "value": 28, "unit": "% growth reduction"},
      {"measurement": "Actual Injury (% growth reduction)", "setting": "[11]; 2,4-D 70 g ae/ha alone", "value": 38, "unit": "% growth reduction"},
      {"measurement": "Actual Injury (% growth reduction)", "setting": "[12]; 2,4-D 280 g ae/ha alone", "value": 53, "unit": "% growth reduction"}
    ]},
    {"smiles": "CC(Oc1ccc(Cl)cc1Cl)C(=O)O", "note": "(stereo not drawn) [Dichlorprop, 2,4-dichlorophenoxy propionic acid]", "values": [
      {"measurement": "Actual Injury (% growth reduction)", "setting": "[1]; Dichlorprop 70 g ae/ha alone", "value": 80, "unit": "% growth reduction"},
      {"measurement": "Actual Injury (% growth reduction)", "setting": "[2]; Dichlorprop 140 g ae/ha alone", "value": 38, "unit": "% growth reduction"},
      {"measurement": "Actual Injury (% growth reduction)", "setting": "[4]; Dichlorprop 70 g ae/ha alone", "value": 48, "unit": "% growth reduction"},
      {"measurement": "Actual Injury (% growth reduction)", "setting": "[5]; Dichlorprop 70 g ae/ha alone", "value": 68, "unit": "% growth reduction"},
      {"measurement": "Actual Injury (% growth reduction)", "setting": "[7]; Dichlorprop 140 g ae/ha alone", "value": 38, "unit": "% growth reduction"},
      {"measurement": "Actual Injury (% growth reduction)", "setting": "[8]; Dichlorprop 210 g ae/ha alone", "value": 43, "unit": "% growth reduction"},
      {"measurement": "Actual Injury (% growth reduction)", "setting": "[9]; Dichlorprop 280 g ae/ha alone", "value": 58, "unit": "% growth reduction"},
      {"measurement": "Actual Injury (% growth reduction)", "setting": "[10]; Dichlorprop 70 g ae/ha alone", "value": 33, "unit": "% growth reduction"},
      {"measurement": "Actual Injury (% growth reduction)", "setting": "[11]; Dichlorprop 210 g ae/ha alone", "value": 43, "unit": "% growth reduction"},
      {"measurement": "Actual Injury (% growth reduction)", "setting": "[12]; Dichlorprop 280 g ae/ha alone", "value": 48, "unit": "% growth reduction"}
    ]}
  ]
}
